{
  "source": "patent US10760135B2",
  "about": "“Methods for predicting pancreatic cancer treatment response” (priority 2016, dated 2020)",
  "origin": "cited, not measured here",
  "test_system": "advanced PDAC",
  "settings": "first-line treatment, patients with advanced PDAC",
  "note": "Where a name gives a salt, the structure may show the parent alone.",
  "data": [
    {"compound": "Nc1ccn([C@@H]2O[C@H](CO)[C@@H](O)C2(F)F)c(=O)n1", "note": "[Gemcitabine, 1-(2′-Deoxy-2′,2′-difluoro-[beta]-D-ribofuranosyl)-4-aminopyrimidin-2-one hydrochloride]", "values": [
      {"measurement": "5-year survival rate", "result": 2, "unit": "%"}
    ]}
  ]
}
